What was measured:
APO A1 promoter [1] = test: APO A1 promoter activity, Hep G2 cells permanently transfected with pA1.474-Luc; format: cell-based, human; conditions: 10 μM resveratrol
Description: HepG2 cells were also permanently transfected with 474-luciferase using a co-transfection method. Hep G2 cells are grown in MEM (Gibco) and 10% fetal calf serum (Gibco) and then co-transfected with 474-Luc along with another plasmid that carries neomycin resistance.
(§1) Cells were transfected with Luciferase plasmid of interest (see above) and left to recover overnight in serum poor media. These cells or those that were permanently transfected with the luciferase promoter were then treated with varying concentrations of resveratrol for stated periods of time. As above, RSV-beta-Gal was co-transfected as a control to normalize for DNA uptake. Cells were then harvested and suspended in reporter lysis buffer (Promega). A 10 μl aliquot of this lysate was used for determination of luciferase activity, and 5 μl were used for total protein determination (Bradford Assay, Bio-Rad reagent). Luciferase activity was then determined and expressed relative to the protein concentration of that sample.
To assay for promoter activity in Hep G2 cells, the reporter construct pA1.474-Luc was inserted into the human hepatoma, Hep G2, cells along with pRSV-β-galactosidase as a monitor for transfection efficiency using conventional molecular biology techniques as later described. The transfected cells were exposed to varying concentrations of resveratrol from 0 to 100 μM for 16 hours. […]

APO A1 promoter [2] = test: APO A1 promoter activity, pA1.474-Luc reporter transiently transfected in Hep G2 cells; format: cell-based, human
Description: (§2) The plasmids created for the studies contained the human APO A1 promoter from −474, −375, −325, −235, −190 to −170 fused to the firefly luciferase gene in the vector, pGL3 (Promega). Insertion of the promoter DNA was verified by nucleotide sequence analysis. Plasmid DNA was prepared from bacteria containing the desired clone and isolated using Qiagen kits according to manufacturer's instructions and used in the tansfection studies or to create a stable cell line.
(§3) The CaCo2 or HepG2 cells were grown in the defined media and, for promoter assay studies, transfected with the reporter construct of interest. Cells were then left in serum-free media for 8-12 hours after which time resveratrol was added to media to give a final concentration of the agent as stated in the figure legends. The cells were exposed to the agent for varying periods of time, harvested and then the parameter of interest, either APO A1 protein or promoter activity, was assayed.
(§4) For transient transfections cells were seeded onto six well plates and grown to 30-40% confluence, The cells were then transfected using 5 μl of Superfect (Qiagen) and up to one microgram of the plasmid of interest in 100 μl of serum and antibiotic free MEM. The solution was incubated for 10 minutes at room temperature. Media was then removed from the cells to be transfected and 1 ml of media was added to the DNA-Superfect mixture before being applied to the cells. The cells were then exposed to the DNA for 2 hours at 37° C./5% CO2 and then the media containing DNA was removed and replaced with serum free MEM media allowed to grow over night prior to harvest.
Cells were transfected with Luciferase plasmid of interest (see above) and left to recover overnight in serum poor media. These cells or those that were permanently transfected with the luciferase promoter were then treated with varying concentrations of resveratrol for stated periods of time. As above, RSV-beta-Gal was co-transfected as a control to normalize for DNA uptake. […] Luciferase activity was then determined and expressed relative to the protein concentration of that sample. […]

[3] = test system: human APO A1 promoter from −474 to −7; test: APO A1 promoter activity, pA1.474-Luc reporter transiently transfected in CaCo2 cells; format: cell-based
Description: as §2, §3, §4
Cells were transfected with Luciferase plasmid of interest (see above) and left to recover overnight in serum poor media. […] Luciferase activity was then determined and expressed relative to the protein concentration of that sample.
Next the CaCo2 cells were exposed to varying concentrations of resveratrol from 0 to 15 μM. […] At the end of the treatment, the cells were harvested and the Luc-activity measured. […]

APO A1 protein [4] = test: Immunofluorescence staining of APO A1 protein in Hep G2 cells; format: cell-based, human; conditions: 5 or 10 μM
Description: (§5) Human hepatoblastoma cells (HepG2) and intestinal cells (CaCo2) were obtained from the American Type Culture Collection (Rockville, Md.). Cells were grown in Minimum Essential Medium (MEM) (Gibco) supplemented with 2 mM glutamine, MEM vitamin solution and 10% fetal bovine serum (FBS) for HepG2 and 20% FBS (Gibco) for CaCo2 cells. All cells were incubated in a 95% air/5% CO2 atmosphere.
The CaCo2 or HepG2 cells were grown in the defined media and, for promoter assay studies, transfected with the reporter construct of interest. Cells were then left in serum-free media for 8-12 hours after which time resveratrol was added to media to give a final concentration of the agent as stated in the figure legends. […]
(§6) HepG2 and CaCo2 cells were grown on cover slips. […] The FITC-labeled ApoA1 peptide in cells was visualized using a Zeiss fluorescence microscope (Zeiss, Dusseldorf, Germany) with FITC excitation and emission wavelengths of 488 and 520 nm. […]
Since the APO A1 gene is expressed in both liver and small intestine, the following studies examine the ability of resveratrol to affect expression of the gene in liver cells. […] Hep G2 cells were viewed under phase contrast or fluorescence microscopy following treatment with or without resveratrol and immunostaining for their content of APO A1 protein.

APO A1 promoter [5] = test: APO A1 promoter deletion constructs fused to Luc, transient transfection in CaCo2 cells; format: cell-based, human; conditions: 5 μM, minimum of 16 hours
Description: as §2, §4, §1
In order to identify the potential motif(s), separate constructs containing progressively smaller amounts of APO A1 DNA were fused to the Luc gene. The activity of each construct was tested by transient transfection assay in CaCo2 cells and than treated with 5 μM resveratrol for a minimum of 16 hours. […] The number at the bottom of each set of columns denotes the 5′ location of the fragment and the 3′ end is common to all deletional clones at −7. […] In contrast, further deletion with the remaining −170 to −7 fragment of the promoted abolished the resveratrol induction of the promoter. We discovered the resveratrol responsive motif in the APO A1 DNA must span nucleotides −190 to −170.

APO A1 protein [6] = test: Western blot of APO A1 protein in spent media from CaCo2 cells; format: cell-based, human; conditions: 5 or 10 p,M, 36 hours
Description: (§7) Media or cells were harvested from untreated and treated HepG2/CaCo2 culture dishes at various time points and stored at −80° C. when required. For experiments in which media was collected for western blotting, cells from these dishes were trypsinized (Gibco) and a 100 μl sample of cells was used to determine the percentage of dead cells by counting live/dead cell ratios using […] staining. The remaining cells were then assessed for total DNA content using method described by Maniatis, (Cloning Manual). DNA content per dish was then utilized along with ratio of live/dead cells to normalize the amount of media to be separated by polyacrylamide gel electrophoresis. For experiments requiring western blot of whole cell lysates, cells were harvested and lysed using reporter lysis reagent (Promega) and cell debris was spun down at 13,000 rpm for 5 minutes. […]
This to experiment sought to measure whether resveratrol stimulation of transcriptional activity of the promoter in the CaCo2 cells increased the abundance of the APO A1 protein, ultimately responsible for the antiatherogenic activity of the gene. […] Longer exposure of the cells to resveratrol was utilized to allow adequate time for the APO A1 protein to be secreted into the media from the CaCo2 cells, and detected. […]

APO A1 protein [7] = test: Western blot of APO A1 protein in spent media from Hep G2 cells; format: cell-based, human; conditions: 5 or 10 p,M, 36 hours
Description: as §7, with “minutes. An aliquot of the supernatant was then used to determine amount of protein per samples were using Bradford assay (Rio-Rad reagent). Equal amounts of protein from all samples were then separated by polyacrylamide gel electrophoresis as was done with media.” for “minutes.”
To measure whether resveratrol stimulation of the APO A1 promoter in the Hep G2 cells also increases the abundance of the protein, APO A1 secreted into the media was assessed following treatment with the compound. […]

APO A1 protein [8] = test: Immunofluorescence staining of APO A1 protein in CaCo2 cells; format: cell-based, human; conditions: 5 and 10 μM, 36 hours of treatment
Description: as §5, §3
as §6, with “slips. Cover slips on which CaCo2 cells were grown were also coated with fibronectin (Calbiochem).” for “slips.”

Oc1ccc(/C=C/c2cc(O)cc(O)c2)cc1 [resveratrol, trans-3,5,4′-trihydroxystilbene]
maximal increase of Luc-activity (APO A1 promoter [1]): 4 fold | concentration at which resveratrol becomes inhibitory on APO A1 promoter activity (APO A1 promoter [2]; 16 hours): ≥ 50 µM | increase in Luc-activity (APO A1 promoter) (APO A1 promoter [2]; 16 hours, 5 to 10 μM resveratrol): 3 fold | decrease in Luc-activity (APO A1 promoter [2]; 16 hours, 15, 25, 50, 75 or 100 μM): 50% | optimal time point for stimulatory effect on APO A1 promoter ([3]; 5 μM, time points 4 to 24 hours): around 16 hours | maximal stimulation of APO A1 promoter activity (Luc-activity) ([3]; 16 hours, resveratrol 5 to 7.5 μM): 2.5 fold | resveratrol concentration causing maximal stimulation of APO A1 promoter activity ([3]; 16 hours, tested 0 to 15 μM): 5 to 7.5 µM | fluorescence for APO A1 signal (immunostaining) (APO A1 protein [4]): increase in fluorescence | increase in promoter activity, −190 to −7 fragment (APO A1 promoter [5]): 2.5 fold | increase in promoter activity, −235 to −7 fragment (APO A1 promoter [5]): 2.5 fold | induction of promoter activity, full-length (−474 to −7) promoter (APO A1 promoter [5]): 2.5 fold | induction of promoter, −170 to −7 fragment (APO A1 promoter [5]): abolished | abundance of APO A1 protein in spent media (western blot) (APO A1 protein [6]): marked increase | abundance of APO A1 protein in spent media (western blot) (APO A1 protein [7]): marked increase | abundance of APO A1 signal (immunohistochemical staining) (APO A1 protein [8]): increase in the abundance of APO A1 signal
